For 83 compounds, IC50 results are on record in patent US11339144B2 (Navitor Pharmaceuticals, Inc., priority 2017, dated 2022).

The IC50 is the concentration at which inhibition is half-maximal.

In this test the target is HA-GST-Rheb (GTP-γ-S loaded) activating mTORC1 (Homo sapiens (Human), UniProt Q15382). Nature of the test: Rheb-dependent in vitro kinase assay (Rheb-IVK; LanthaScreen or Western readout). Type of test: biochemical. The following applies: Rheb-dependent in vitro kinase assay; read-out: IVK IC50.
Chain of HA-GST-Rheb (GTP-γ-S loaded) activating mTORC1 (Q15382 1-181): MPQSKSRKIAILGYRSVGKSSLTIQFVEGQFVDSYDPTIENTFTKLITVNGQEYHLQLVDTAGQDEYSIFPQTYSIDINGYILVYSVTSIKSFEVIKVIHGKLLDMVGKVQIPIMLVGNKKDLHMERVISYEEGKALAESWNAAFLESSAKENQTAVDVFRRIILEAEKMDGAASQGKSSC
As for `Cn1c(CO)cc2c(Oc3cccc(F)c3)cccc21` [I-262], the IC50 is above 100 µM.

For the compound `Cn1c(CO)cc2c(Oc3ccccc3F)cccc21` [I-274], the IC50 was above 100 µM.

On to `COC(=O)c1cc2c(Sc3ccc(Cl)cc3Cl)cc(Cl)cc2n1Cc1ccc(Br)cc1` [I-104], for which the IC50 is above 100 µM.

With `COc1ccc(Cn2cnc3c(Br)cc(Oc4ccccc4)cc32)cc1` [I-429], the IC50 was above 100 µM.

For the compound `COc1ccc(Sc2cc(Cl)cc3[nH]c(C(=O)O)cc23)cc1OC` [I-138, 6-chloro-4-(3,4-dimethoxyphenylthio)-1H-indole-2-carboxylic acid], the IC50 lay within 100 to 300 µM.

Turning to `Cn1c(CO)cc2c(Oc3ccccc3Cl)cccc21` [I-272], the IC50 is above 100 µM.

As for `N#Cc1ccc(Cn2c(-c3ncco3)nc3cc(Cl)c(Cl)cc32)cc1` [I-453], the IC50 was above 100 µM.

For the compound `OCc1nc2cc(OCc3cccc(Cl)c3)c(Cl)cc2[nH]1` [I-478, (5-chloro-6-(3-chlorobenzyloxy)-1H-benzo[d]imidazol-2-yl)methanol], the IC50 is 300 to 800 µM.

For the compound `Nc1cccc(COc2c(Cl)c(Cl)cc3nc(CO)[nH]c23)n1` [I-464], the IC50 is above 100 µM.

Regarding `CCn1c(CO)nc2cc(OCc3ccccc3)c(Cl)cc21` [I-487], the IC50 is above 100 µM.

As to `CCn1cnc2cc(Cl)c(OCc3ccccc3)cc21` [I-435], the IC50 is above 100 µM.

Regarding `Clc1ccc(CSc2cccc3[nH]ccc23)cc1Cl` [I-191], the IC50 was above 100 µM.

Turning to `CCn1c(CO)nc2cc(OCc3cccc(Cl)c3)c(Cl)cc21` [I-401], the IC50 was above 100 µM.

On to `Cn1c(CO)cc2c(Oc3ccccc3)cc(Cl)cc21` [I-281], for which the IC50 was above 100 µM.

Regarding `OCc1nc2c(Oc3ccccc3)cc(Cl)cc2[nH]1` [I-404], the IC50 is above 100 µM.

For the compound `OCc1cc2c(OCc3ccccc3)cc(Cl)cc2[nH]1` [I-294], the IC50 is above 100 µM.

As for `Clc1ccc2[nH]c(-c3ncco3)nc2c1Oc1ccccc1` [I-427, 2-(5-chloro-4-phenoxy-1H-benzo[d]imidazol-2-yl)oxazole], the IC50 was 100 to 300 µM.

Regarding `Cn1c(CO)cc2c(Oc3ccc(F)cc3)cccc21` [I-273], the IC50 was above 100 µM.

Take `Clc1ccc(Sc2cccc3c2ccn3Cc2nc[nH]n2)cc1` [I-196, 1-((1H-1,2,4-triazol-3-yl)methyl)-4-(4-chlorophenylthio)-1H-indole]: the IC50 lay within 10 to 100 µM.

Take `O=C(O)c1cc(Sc2ccc(Cl)cc2)c2cc[nH]c2c1` [I-193]: the IC50 was above 100 µM.

Regarding `OCc1cc2cc(Sc3ccccc3)ccc2n1Cc1nc[nH]n1` [I-181], the IC50 was above 100 µM.

Turning to `OCc1nc2cc(Cl)c(Cl)c(OCC3CCNC3)c2[nH]1` (centres unmarked) [I-460], the IC50 is above 100 µM.

With `CC(=O)OCCc1cc2c(Oc3ccccc3)c(Cl)ccc2[nH]1` [I-260], the IC50 was above 100 µM.

In the case of `OCc1nc2c(OC[C@H]3CCCC[C@@H]3O)c(Cl)c(Cl)cc2[nH]1` (racemic) [I-383, (+,−)-trans-2-((5,6-dichloro-2-(hydroxymethyl)-1H-benzo[d]imidazol-4-yloxy)methyl)cyclohexanol], the IC50 lay in the range of 10 to 100 µM.

For `O=C(c1ccc(Cl)cc1)c1cccc2[nH]ccc12` [I-178], the IC50 was above 100 µM.

Turning to `CCn1c(CO)nc2cc(OCc3cccc(F)c3)c(Cl)cc21` [I-442], the IC50 is above 100 µM.

Consider `O=C(O)c1cccc(Cn2c(-c3ncco3)nc3cc(Cl)c(Cl)cc32)c1` [I-446], for which the IC50 is above 100 µM.

`Clc1ccc(Sc2cccc3[nH]ccc23)cc1Cl` [I-211]: the IC50 is above 100 µM.

In the case of `CCn1c(CO)nc2cc(Cl)c(Oc3ccccc3)cc21` [I-456], the IC50 was above 100 µM.

Consider `O=C1CCC(COc2c(Cl)c(Cl)cc3[nH]c(CO)nc23)N1` (centres unmarked) [I-419], for which the IC50 is above 100 µM.

Take `OCc1nc2cc(Cl)c(Cl)c(OCC3CCCCN3)c2[nH]1` (centres unmarked) [I-462]: the IC50 was above 100 µM.

Take `Nc1ncncc1COc1c(Cl)c(Cl)cc2[nH]c(CO)nc12` [I-409]: the IC50 is above 100 µM.

As to `Cn1c(CO)nc2c(OC[C@H]3CCCC[C@@H]3O)c(Cl)c(Cl)cc21` (racemic) [I-387, (+,−)-trans-2-((5,6-dichloro-2-(hydroxymethyl)-1-methyl-1H-benzo[d]imidazol-4-yloxy)methyl)cyclohexanol], the IC50 was in the range of 100 to 300 µM.

With `OCc1cc2c(Br)cc(Oc3ccccc3)cc2n1Cc1nc[nH]n1` [I-225], the IC50 was above 100 µM.

Turning to `OCc1nc2c(OCC3CCCCO3)c(Cl)c(Cl)cc2[nH]1` (centres unmarked) [I-398], the IC50 was above 100 µM.

As to `Clc1cc2nc(-c3ncco3)n(Cc3cccc(-c4nn[nH]n4)c3)c2cc1Cl` [I-438], the IC50 is above 100 µM.

`OCc1nc2cc(OCCc3ccccc3)c(Cl)cc2[nH]1` [I-483, (6-chloro-5-phenethoxy-1H-benzo[d]imidazol-2-yl)methanol]: the IC50 lay in the range of 300 to 800 µM.

Take `Clc1cc2cc[nH]c2cc1Oc1ccccc1` [I-258]: the half-inhibitory concentration (IC50) was above 100 µM.

In the case of `OCc1nc2c(Br)cc(Oc3ccccc3)cc2[nH]1` [I-428, (4-bromo-6-phenoxy-1H-benzo[d]imidazol-2-yl)methanol], the IC50 is above 100 µM.

`CCn1c(CO)nc2cc(Cl)c(OCc3cccc(F)c3)cc21` [I-443]: the half-maximal inhibitory concentration (IC50) is above 100 µM.

For `Cn1c(CO)cc2c(Sc3ccc(Cl)cc3)cc(Cl)cc21` [I-206], the IC50 is above 100 µM.

As for `OCc1nc2c(Oc3ccc(Cl)cc3)cccc2n1Cc1nc[nH]n1` [I-408], the IC50 was above 100 µM.

On to `OCc1nc2c(OCc3cncnc3O)c(Cl)c(Cl)cc2[nH]1` [I-405], for which the IC50 was above 100 µM.

Turning to `O=S(=O)(c1ccc(Cl)cc1)c1cccc2[nH]ccc12` [I-242], the IC50 was above 100 µM.

For `OCc1cc2c(Oc3cccc(F)c3)cccc2[nH]1` [I-264], the IC50 is above 100 µM.

Regarding `COc1cccc(Sc2cccc3[nH]ccc23)c1` [I-195], the IC50 was above 100 µM.

As for `Cn1ccc2c(Oc3ccccc3Cl)cccc21` [I-269], the IC50 was above 100 µM.

In the case of `OCc1cc2c(Oc3ccc(F)cc3)cccc2[nH]1` [I-278, (4-(4-fluorophenoxy)-1H-indol-2-yl)methanol], the IC50 lay within 300 to 800 µM.

As for `O=C1CCCC(COc2c(Cl)c(Cl)cc3[nH]c(CO)nc23)N1` (centres unmarked) [I-465, 6-((5,6-dichloro-2-(hydroxymethyl)-1H-benzo[d]imidazol-4-yloxy)methyl)piperidin-2-one], the IC50 was in the range of 100 to 300 µM.

With `c1cnc(Nc2cccc3[nH]ccc23)nc1` [I-189], the IC50 was above 100 µM.

Take `CCn1c(CO)nc2cc(Cl)c(OCc3ccccc3)cc21` [I-488]: the IC50 is above 100 µM.

For the compound `Cn1c(CO)cc2c(Oc3ccccc3)cccc21` [I-280], the IC50 is above 100 µM.

Turning to `NC(=O)c1cccc(Cn2c(-c3ncco3)nc3cc(Cl)c(Cl)cc32)c1` [I-447], the IC50 is above 100 µM.

In the case of `CCOCc1nc2cc(OCc3ccccc3)cc(Cl)c2n1CC` [I-414], the IC50 was above 100 µM.

In the case of `Nc1nccc(COc2c(Cl)c(Cl)cc3[nH]c(CO)nc23)n1` [I-423], the IC50 is above 100 µM.

Consider `OCc1nc2c(Oc3ccccc3Cl)cccc2n1Cc1nc[nH]n1` [I-407, (1-((1H-1,2,4-triazol-3-yl)methyl)-4-(2-chlorophenoxy)-1H-benzo[d]imidazol-2-yl)methanol], for which the IC50 is above 100 µM.

On to `N#CCc1nc2c(Oc3ccccc3)cccc2[nH]1` [I-471], for which the IC50 was above 100 µM.

As for `OCc1cc2c(Oc3ccccc3)cccc2[nH]1` [I-287], the IC50 is above 100 µM.

For `CCn1c(CO)nc2cc(OCc3ccccc3Cl)c(Cl)cc21` [I-432], the IC50 is above 100 µM.

`Nc1nonc1-c1nc2cc(Cl)c(Cl)cc2n1Cc1ccccc1` [I-491]: the IC50 was above 100 µM.

Turning to `O=C(O)c1ccc(Sc2cccc3[nH]ccc23)cc1` [I-192], the IC50 is above 100 µM.

On to `OCc1ccc(Sc2cccc3[nH]ccc23)cc1` [I-183], for which the IC50 was above 100 µM.

`CCn1cnc2cc(OCc3ccccc3)c(Cl)cc21` [I-434, 5-(benzyloxy)-6-chloro-1-ethyl-1H-benzo[d]imidazole]: the IC50 was 100 to 300 µM.

As for `[O-][S+](c1ccccc1Cl)c1cccc2[nH]ccc12` (centres unmarked) [I-231], the IC50 was above 100 µM.

On to `OCc1nc2cc(OCc3ccccc3Cl)c(Cl)cc2[nH]1` [I-485, (5-chloro-6-(2-chlorobenzyloxy)-1H-benzo[d]imidazol-2-yl)methanol], for which the IC50 lay in the range of 300 to 800 µM.

For `OCc1nc2c(OCCc3c[nH]cn3)c(Cl)c(Cl)cc2[nH]1` [I-384], the IC50 was above 100 µM.

As for `O=C(O)c1ccc(Cn2c(-c3ncco3)nc3cc(Cl)c(Cl)cc32)cc1` [I-452], the half-maximal inhibitory concentration (IC50) was above 100 µM.

`CCn1c(CO)nc2cc(OCc3ccc(F)cc3)c(Cl)cc21` [I-444]: the IC50 was above 100 µM.

For the compound `Clc1ccc2c(c1)nc(-c1ncco1)n2Cc1ccc(-c2nn[nH]n2)cc1` [I-410], the IC50 was above 100 µM.

For the compound `Clc1cccc(Cl)c1Oc1cccc2[nH]ccc12` [I-228], the IC50 was above 100 µM.

For the compound `Cn1ccc2c(Oc3cccc(Cl)c3)cccc21` [I-270], the IC50 is above 100 µM.

For the compound `N#CCc1nc2c(Oc3ccccc3)c(Cl)ccc2[nH]1` [I-441], the IC50 is above 100 µM.

As for `Cn1ccc2c(Oc3cccc(F)c3)cccc21` [I-266], the IC50 is above 100 µM.

As to `Clc1ccc(Sc2cc(Sc3ccc(Cl)cc3)c3cc[nH]c3c2)cc1` [I-200], the IC50 is above 100 µM.

In the case of `Cn1c(CO)cc2c(Oc3ccc(Cl)cc3)cccc21` [I-259], the IC50 was above 100 µM.

Regarding `Cc1cc(Oc2ccccc2)cc2c1cc(CO)n2C` [I-245], the IC50 was above 100 µM.

As to `Cn1ccc2c(Sc3ccc(Cl)cc3)cc(Cl)cc21` [I-205], the IC50 was above 100 µM.

In the case of `OCc1cc2c(Br)cc(OCc3ccccc3)cc2n1Cc1ccccc1` [I-224], the IC50 was above 100 µM.

For `CNC(=O)c1ccc(Sc2cccc3[nH]ccc23)cc1` [I-184], the IC50 is above 100 µM.

In the case of `Cc1cc(Oc2ccccc2)cc2[nH]c(CO)cc12` [I-238], the IC50 is above 100 µM.

In the case of `Cn1c(CO)nc2cc(Cl)c(OCc3ccccc3)cc21` [I-426], the IC50 is above 100 µM.

For `CCn1c(CO)nc2cc(Oc3ccccc3)c(Cl)cc21` [I-455], the IC50 is above 100 µM.

On to `O=S(=O)(c1ccccc1Cl)c1cccc2[nH]ccc12` [I-232], for which the IC50 was above 100 µM.
